The subject of experiment [1] is mice with LPS-induced inflammation. Nature of the experiment: Effect of Fidarestat administration on renal damage in mice with lipopolysaccharide (LPS)-induced inflammation. Format: in vivo, CD-1 mice. As for the experimental part:
Eight-week-old male CD-1 mice were used in the experiment. The mice were divided into 3 groups of normal control group (drug and LPS non-administration group), LPS control group (drug non-administration/LPS administration group), and LPS/Fidarestat administration group (Fidarestat and LPS administration group). First, 10 mg/kg of Fidarestat (which was prepared with a solubilizing agent solution) was administered into the caudal vein of the Fidarestat administration group and the solubilizing agent solution was administered into the caudal vein of the drug non-administration group. After 5 minutes, Lipopolysaccharides (LPS: Escherichia coli; 0111: B4, Sigma) was prepared with a physiological salt solution, which was administered to the LPS administration group intraperitoneally at a concentration of 2 mg/kg and a physiological salt solution was administered to the LPS non-administration group intraperitoneally. After 24 hours, each of the groups of mice was anesthetized by ether inhalation and blood was collected from the abdominal vein using a heparinized syringe. Then, centrifugation was carried out under the following conditions: at 4 degree C., at 1,000×g, for 10 min. Plasma was then obtained. Blood urea nitrogen (BUN) and creatinine were measured using an autoanalyzer (Hitachi). In this regard, as a solubilizing agent, NMDG (N-methyl-D-glucamine) was used.

Experiment [2] deals with ischemia reperfusion mice. In words: Effect of Fidarestat administration on renal damage in ischemia reperfusion mice. Format: in vivo, C57BL/6 mice. Conditions: for BUN / CK / Creatinine: blood, 3 h ischemia, 24 h reperfusion, Average ± SEM, n = 4. As for the experimental part: Sixteen- to twenty-week-old male C57BL/6 mice (Wild) were used in the experiment. The mice were divided into 4 groups, which were designated as sham-operation group (normal control group), ischemia operation group (ischemia reperfusion control group), ischemia operation+Fidarestat 40 mg/kg administration group (ischemia reperfusion/Fidarestat 40 mg/kg administration group), and ischemia operation+Fidarestat 150 mg/kg administration group (ischemia reperfusion/Fidarestat 150 mg/kg administration group), respectively. 40 or 150 mg/kg/day of Fidarestat was mixed in their diet and administered to the ischemia operation+Fidarestat administration groups 7 days before ischemia operation. Plantar blood flow in these mice was measured with a laser blood flow meter under isoflurane anesthesia, and then the abdomen was incised. The abdominal aorta was exposed under a stereoscopic microscope and clipping was carried out at the portion distal to the renal artery bifurcation. Further, the right common iliac artery was also clipped and the right femoral artery was finally clipped. Thereafter, the abdomen was closed. The time of ischemia onset was set to the time when the femoral artery was clipped. From the time of ischemia onset, plantar blood flow was measured with a laser blood flow meter and the ischemia was confirmed. The clipping was released in order of the right femoral artery, right common iliac artery, and abdominal aorta in 3 hours from the ischemia onset and reperfusion was performed. At the time, the reperfusion status was confirmed with the laser blood flow meter. The reperfusion time was set to the time when the clipping of the aorta was released. The reperfusion was performed for 24 hours and the general condition was observed. Thereafter, heart blood was collected from the right atrium under isoflurane anesthesia. The collected heart blood was mixed with heparin and centrifuged at 3000 g. Then, the supernatant was collected therefrom, which was frozen for preservation at −80 degrees C. to use in a serologic test for CK, BUN, creatinine, and the like.

Setting [3] is: plasma, Fidarestat 10 mg/kg caudal vein 5 min before LPS 2 mg/kg i.p., 24 hours after LPS, Average ± SEM, n = 7.
[4] abbreviates: Fidarestat 40 mg/kg/day in diet from 7 days before ischemia.
[5] abbreviates: Fidarestat 150 mg/kg/day in diet from 7 days before ischemia.

As to `NC(=O)[C@@H]1C[C@]2(NC(=O)NC2=O)c2cc(F)ccc2O1` [Fidarestat, (2S,4S)-6-fluoro-2′,5′-dioxospiro[chroman-4,4′-imidazolidine]-2-carboxamide], the “effect on renal function impairment” value in experiment [1] (model with LPS-induced inflammation, Fidarestat 10 mg/kg i.v.) is given as “effective”. In experiment [1] (setting [3]), this compound displayed a BUN of 24.3 ± 2.2 mg/dL and a Creatinine of 0.067 ± 0.003 mg/dL. In experiment [2] (setting [4]), this compound displayed a BUN of 40 ± 11 mg/dL, a CK of 6978 ± 4904 IU/L and a Creatinine of 0.12 ± 0.01 mg/dL. In experiment [2] (setting [5]), this compound yielded a BUN of 31 ± 1 mg/dL, a CK of 2348 ± 530 IU/L and a Creatinine of 0.10 ± 0.01 mg/dL. The “onset of acute renal failure” value in experiment [2] (ischemia reperfusion/Fidarestat 40 mg/kg and 150 mg/kg administration groups) was “completely suppressed”.
